Data as given in patent US10416175B2, “Opioid detection” (Randox Laboratories Limited, priority 2015, dated 2019).
≈ marks a conversion by molar mass, not a printed value. Where “and” joins values, the source holds several entries; their conditions need not be identical. Identical values can stand only once. Counter-ions that a name gives are not always drawn.

Assays:
[1] = over 24-72 hours, following oral administration of tramadol; cited from earlier work
[2] = tested on: antibody specific to mitragynine; assay: ELISA for mitragynine and 8-desmethylmitragynine (polyclonal antibody to mitragynine); format: binding; conditions: for % CR: based on 100% specificity to mitragynine; for IC50: standard concentration which produces 50% B/B0
Text: In one embodiment, the antibodies and immunoassay methods and kits for mitragynine (kratom), are as described in U.S. patent application Ser. No. 14/184,422, filed Feb. 19, 2014 entitled “Immunoassay for Detecting Kratom, its Constituents and their Use” the entire contents of which are incorporated herein by reference. In particular, U.S. patent application Ser. No. 14/184,422 describes a polyclonal antibody which that binds specifically to an epitope of one or more of mitragynine, 8-desmethylmitragynine, 8-sulphonylmitragynine, and 8-glucuronidylmitragynine which was raised to an immunogen having the structure of:
[drawing 5] • wherein HRP is horseradish peroxidase.

[3] = tested on: antibody specific to mitragynine; conditions: polyclonal antibody of U.S. application 14/184,422, based on 100% to mitragynine; cited from earlier work
[4] = tested on: antibody raised against Immunogen-2; assay: Competitive ELISA with polyclonal antibody raised against Immunogen-2, Tracer-1 as detecting agent; format: binding, sheep; conditions: for % CR: relative to O-desmethyltramadol = 100
Experimental: Pre-immunization blood samples are collected from sheep. In order to generate polyclonal antisera, 2 mgs of the immunogen (structure 1) is prepared in PBS, mixed at a ratio of 50% immunogen in PBS to 50% Freund's Complete adjuvant (Sigma, Product Number F5881) and emulsified by repeatedly passing the mixture through a tip on the end of a 1 ml syringe, until it reaches the required semi-solid consistency. 1.1 ml of the emulsified mixture is injected intramuscularly into each host animal (sheep) as the primary immunisation dose. Further injections (boosts) are prepared (1 mg of immunogen is prepared in PBS and mixed at a ratio of 50% Immunogen in PBS/50% Freunds Incomplete adjuvant, Sigma, Product Number—F5506). Boost injections are delivered intramuscularly at monthly intervals, 1 ml per animal. Serum is sampled monthly by collection of whole blood from the jugular vein for evaluation of the antibody titre. The degree of antibody purification required depends on the intended application. For many purposes, there is no requirement for purification of the serum, however, in other cases, such as, where the antibody is to be immobilised on a solid support, purification steps (such as caprylic acid/ammonium sulphate precipitation) can be taken to remove undesired material and eliminate non-specific binding. In another embodiment, the purification is by immunoglobulin precipitation, antigen-specific affinity purification, column chromatography, such as, size-exclusion chromatography or ion exchange chromatography.
The polyclonal antibody raised against Immunogen-2 of Example 9 was removed from fridge or freezer and brought to room temperature. The antibody was diluted to 2.5 μg/ml in 10 mM Tris pH 8.5 and all appropriate wells are coated at 125 μl/well at 37° C. for 2 hours or at 4° C. overnight. The plate was washed 4 times over a period of 10 minutes with working strength tris-buffered saline and tween 20 (TBST) wash buffer and tapped dry. 50 μl of working strength TBST was pipetted into the appropriate wells. Dilutions of target analyte and potential crossreactant(s) were prepared in working strength TBST and pipetted (50 μl) into the appropriate wells beginning with the lowest concentration to the highest concentration. Hapten-HRP (Tracer-1) conjugate at the appropriate concentration was prepared in conjugate dilution buffer and 75 μl into pipetted into appropriate wells. The plate was tapped gently to mix contents, sealed and incubated at 25° C. for 1 hour. The plate was washed 6 times over a 10-15 minute period (3 quick washes followed by 3 additional washes over 12 minutes) and tapped dry thoroughly onto tissue paper. Trimethylbenzidine (TMB) solution (125 μl) was added to each well and tapped gently, and the plate was incubated at room temperature for 20 minutes in the dark. The reaction was stopped by addition of 125 μl of 0.2 M sulphuric acid to each well and the absorbance measured at 450 nm using an ELISA plate reader (Biotek Elx800).

[5] = tested on: Neogen Tramadol commercial immunoassay; conditions: cited from earlier work
[6] = tested on: Randox Tramadol commercial immunoassay; conditions: cited from earlier work
[7] = tested on: Bio-Quant Tramadol commercial immunoassay; conditions: cited from earlier work
[8] = tested on: IDS Tramadol commercial immunoassay; conditions: cited from earlier work
[9] = tested on: Immunanalysis Tramadol commercial immunoassay; conditions: cited from earlier work
[10] = antibodies from three sheep immunised with Immunogen-2

Row | Compound | Urinary excretory amount [1] | B/Bo ([2]; 0.313 ng/ml analyte) | B/Bo ([2]; 0.625 ng/ml analyte) | B/Bo ([2]; 1.250 ng/ml analyte) | B/Bo ([2]; 2.500 ng/ml analyte) | B/Bo ([2]; 5.000 ng/ml analyte) | B/Bo ([2]; 10.000 ng/ml analyte) | B/Bo ([2]; 20.000 ng/ml analyte) | % CR [2] | IC50 [2] | cross-reactivity [3] | B/Bo ([4]; 0.156 ng/ml analyte) | B/Bo ([4]; 0.313 ng/ml analyte) | B/Bo ([4]; 0.625 ng/ml analyte) | B/Bo ([4]; 1.250 ng/ml analyte) | B/Bo ([4]; 2.500 ng/ml analyte) | B/Bo ([4]; 5.000 ng/ml analyte) | B/Bo ([4]; 10.000 ng/ml analyte) | % CR [4] | % Cross-reactivity [5] | other results
1 | COc1cccc([C@]2(O)CCCC[C@H]2CN(C)C)c1 (racemic) [Tramadol, (±)-cis-2-[(dimethylamino)methyl]-1-(3-methoxyphenyl)cyclohexanol hydrochloride] | 12-32% | – | – | – | – | – | – | – | – | – | – | – | – | – | – | – | – | – | – | – | –
2 | CC[C@@H]1CN2CCc3c([nH]c4cccc(OC)c34)[C@@H]2C[C@@H]1/C(=C\OC)C(=O)OC [Mitragynine, mitragynine] | – | 75 | 63 | 49 | 37 | 25 | 17 | 11 | 100.00% | 1.193 ng/mL (≈ 2.99 nM) | 100% | – | – | – | – | – | – | – | – | – | –
3 | CC[C@@H]1CN2CCc3c([nH]c4cccc(O)c34)[C@@H]2C[C@@H]1/C(=C\OC)C(=O)OC [8-Desmethylmitragynine, 8-desmethylmitragynine] | – | 74 | 63 | 54 | 42 | 29 | 18 | 13 | 77.87% | 1.532 ng/mL (≈ 3.98 nM) | about 77.87% | – | – | – | – | – | – | – | – | – | –
4 | (±)-cis-2-[(dimethylamino)methyl]-1-(3 hydroxyphenyl)-cyclohexanol [O-Desmethyltramadol] | 5-15% | – | – | – | – | – | – | – | – | – | – | 53 | 37 | 24 | 16 | 10 | 6 | 4 | 100% | 27% | IC50 of antibodies to O-desmethyltramadol [4, 10]: 0.178 ng/mL and 0.181 ng/mL and 0.214 ng/mL; % Cross-reactivity [6]: 57%; % Cross-reactivity [7]: 100%; % Cross-reactivity [8]: 40%; % Cross-reactivity [9]: 6%
5 | CNC[C@@H]1CCCC[C@@]1(O)c1cccc(OC)c1 (racemic) [N-Desmethyltramadol, (±)-cis-2-[(methylamino)methyl]-1-(3-methoxyphenyl)cyclohexanol] | 2-31% | – | – | – | – | – | – | – | – | – | – | 97 | 98 | 99 | 100 | 99 | 97 | 98 | <<1.78% | 6% | cross-reactivity (in words) [4, 10]: no cross-reactivity; IC50 ([4]; antibody raised against Immunogen-2, Tracer-1): >>10 ng/ml; binding (in words) ([4]; at the concentrations tested (Table 2)): no appreciable binding; % Cross-reactivity [6]: 4%; % Cross-reactivity [7]: <5%; % Cross-reactivity [8]: <2%; % Cross-reactivity [9]: 44%
